In brackets after ≈: the same amount, converted by molar mass. Blank lines part the entries; values can stand above or below the compound they belong to.
Tests used:
[1] = Evaluation on pharmacokinetics of compound in SD rats; format: in vivo; details: male, Sprague-Dawley, rat, plasma; for clearance / AUC / half-life: single intravenous injection and oral administration; for clearance: read-out: Clearance rate; for AUC: read-out: Concentration integral AUC; for half-life: read-out: Half life T1/2 (converted)
Protocol: Experimental objective: To test the pharmacokinetics of a compound in SD rats
Experimental materials: Sprague Dawley rats (male, 200-300 g, 7-9 weeks old, Shanghai SLAC)
Pharmacokinetic characteristics of rodents after intravenous injection and oral administration of the compound were tested using a standard scheme. In the experiment, a candidate compound was prepared into a clear solution, which was administrated to rats by single intravenous injection and oral administration. The solvent for intravenous injection and oral administration is water solution or normal saline solution of hydroxypropyl 3 cyclodextrin at a certain proportion. A whole blood sample was collected within 24 hours, and 3000 g of the sample was centrifuged for 15 minutes. The supernatant was separated to obtain blood plasma samples, to which 4 times volume of an acetonitrile solution containing an internal standard substance was added to precipitate protein. After centrifuging, the supernatant was collected, equivalent volume of water was added, the resulting solution was recentrifuged, and the supernatant was collected for sample injection. The blood concentration was quantitatively analyzed by LC-MS/MS, and the pharmacokinetic parameters were calculated, such as peak concentration, time to peak, clearance rate, half life, area under the curve and bioavailability.

[2] = molecular target: T1, recombinant full-length human PDE2A protein (Homo sapiens, UniProt O00408); experiment: In vitro evaluation on inhibition activities of PDE2 phosphodiesterase (fluorescence polarization, Transcreener AMP2/GMP2); format: biochemical; details: substrate 1 μM cGMP
T1 construct: A recombinant full-length human PDE2A protein; GST (N); made in house; host or cells: Sf9 insect cells (baculovirus)
Protocol: Experimental objective: the concentrations of AMP/GMP generated in the reaction system was detected by detecting a substituted AlexaFluor 633 fluorochrome on AMP/GMP antibodies through fluorescence polarization analysis, and IC50 of PDE2 phosphodiesterase against compound to be detected was calculated.
Buffer solution for determination: 10 mM Tris-HCl, pH 7.5, 5 mM MgCl2, 0.01% Brij 35, 1 mM DTT, and 1% DMSO.
Enzyme: A recombinant full-length human PDE2A protein was expressed by baculovirus in Sf9 insect cells using an N-terminal GST tag
Transcreener® AMP^2/GMP^2 antibody, AMP2/GMP2 AlexaFluor 633 fluorochrome
An enzyme solution was prepared from a freshly prepared buffer solution, and then added to a reaction cavity, a DMSO solution of compound to-be-detected was added through an Echo550 contactless nanoliter pipetting system, and then the resulting solution was preincubated for 10 min at room temperature. A substrate (1 μM cGMP) was added to initiate reaction, which was kept at room temperature for 1 h. […] Fluorescence polarization was detected using Ex/Em 620/688.
Fluorescence polarization intensity was converted to nM concentration through AMP/GMP standard curves, then relative enzymatic activity inhibition was calculated compared with DMSO blank control, and IC50 and curve thereof was calculated using Prism software package (GraphPad Software, San Diego Calif., USA).

LPS-induced TNF-α = experiment: In vitro influence of compound on LPS-induced TNF-α in blood (ELISA); format: cell-based, Sprague Dawley rats; details: rat blood, compound 100 uM, 5 h
Protocol: Experimental objective: to detect the influence of compound on LPS-induced TNF-α in blood of […] in vitro, and to evaluate inhibiting effects of the compound on LPS-induced TNF-α in blood of […].
Sprague Dawley rats (male, 210-260 g, 8-10 weeks old, Shanghai SLAC)
Rat TNF-alpha Quantikine ELISA Kit (R&D, #SRTA00)
The solution of compound to-be-detected at a concentration of 1 mM was prepared, and 40 μL (final concentration of the compound: 100 uM) was respectively added to a 48-well cell culture plate. After rats were anesthetized with isoflurane, blood samples were collected from their hearts (heparin anticoagulation). The blood was added to the to-be-detected compound present in the 48-well plate with 320 μL/well. The 48-well plate was incubated in a cell incubator for 30 min. Then 40 μL of LPS solution (100 ug/ml) was added, and fully mixed. The plate was further incubated in the incubator. 5 h later, the 48-well plate was taken out. The blood samples were transferred to 1.5 ml centrifuge tubes, and centrifuged in a centrifuge (4,500 rpm, 4° C., 5 minutes). The supernatant was separated to obtain blood plasma, which was subpackaged, quickly frozen, and kept in a refrigerator at −80° C. On the next day, the TNF-α levels in blood plasma samples were detected using an R&D ELISA kit.

[3] = Solubility of crystal form A in different solvents; format: physicochemical; details: thermodynamic from solid, room temperature
Protocol: About 2 mg of crystal form A was weighed put in a 1.5 mL liquid phase vial, to which the following solvents were respectively added by pipettes by stages to dissolve the crystal form A while manually vibrating.

[4] = Stability test of crystal form A solid (accelerated, 40° C./75% humidity, open); format: physicochemical
Protocol: A crystal form A was put in an open container at a constant temperature and humidity for accelerated test respectively at 40° C./75% humidity (open). Samples were collected in 1st, 2nd and 3rd months and tested, and the test results were compared with the initial test results on 0th day.

[5] = 40° C./75% humidity (open), 1 month
[6] = 40° C./75% humidity (open), 2 months
[7] = 40° C./75% humidity (open), 3 months

T1 sequence (O00408 whole entry): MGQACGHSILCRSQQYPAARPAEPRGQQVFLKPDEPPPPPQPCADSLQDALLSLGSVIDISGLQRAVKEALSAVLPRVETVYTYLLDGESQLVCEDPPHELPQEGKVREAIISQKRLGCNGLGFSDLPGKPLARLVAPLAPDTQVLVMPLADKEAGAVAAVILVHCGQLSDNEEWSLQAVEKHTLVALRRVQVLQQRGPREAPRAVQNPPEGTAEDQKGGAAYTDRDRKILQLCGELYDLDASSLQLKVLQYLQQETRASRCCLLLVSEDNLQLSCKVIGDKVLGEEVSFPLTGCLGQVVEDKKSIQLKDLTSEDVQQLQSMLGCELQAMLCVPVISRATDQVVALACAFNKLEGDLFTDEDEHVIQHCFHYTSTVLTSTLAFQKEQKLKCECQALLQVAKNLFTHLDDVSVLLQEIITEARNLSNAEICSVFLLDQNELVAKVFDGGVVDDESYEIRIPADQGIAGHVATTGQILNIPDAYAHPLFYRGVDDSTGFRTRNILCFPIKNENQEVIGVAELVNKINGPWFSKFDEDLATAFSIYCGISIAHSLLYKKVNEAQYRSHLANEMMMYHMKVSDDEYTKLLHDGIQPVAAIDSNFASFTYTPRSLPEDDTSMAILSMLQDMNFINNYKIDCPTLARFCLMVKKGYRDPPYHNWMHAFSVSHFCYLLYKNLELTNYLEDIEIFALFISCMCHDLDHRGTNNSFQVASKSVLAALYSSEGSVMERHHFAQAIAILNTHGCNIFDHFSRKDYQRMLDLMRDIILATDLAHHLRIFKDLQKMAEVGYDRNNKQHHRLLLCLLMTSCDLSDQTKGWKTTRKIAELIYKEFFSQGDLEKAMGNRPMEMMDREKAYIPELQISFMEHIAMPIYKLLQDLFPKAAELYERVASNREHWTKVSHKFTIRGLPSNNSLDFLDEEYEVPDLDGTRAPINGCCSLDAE

bioavailability ([1]; oral administration, read-out: Bioavailability F): 47.9%
clearance [1]: 54.4 mL/min/kg
AUC [1]: 4.39 µM·h
half-life [1]: 47.6 min
IC50 [2]: 1 to 10 µM
Compound: Cn1c(=O)n(C[C@H]2CC[C@@](C)(O)CC2)c(=O)c2c1ncn2CC1CC1 [Compound (I), 7-(cyclopropylmethyl)-1-(((cis)-4-hydroxy-4-methylcyclohexyl)methyl)-3-methyl-1H-purine-2,6-(3H, 7H)-dione]
TNF-α Inhibition Ratio (LPS-induced TNF-α): ++ (80% ≤ “++” < 100%)

solubility ([3]; aqueous with cosolvent or surfactant or cyclodextrin, Acetone-water (1:2)): ~1 mg/mL (≈ 2.89 mM)
solubility ([3]; aqueous with cosolvent or surfactant or cyclodextrin, Acetonitrile-water (1:1)): ~22.2 mg/mL (≈ 64.1 mM)
solubility ([3]; aqueous with cosolvent or surfactant or cyclodextrin, Ethanol-water (1:1)): ~16.3 mg/mL (≈ 47.1 mM)
solubility ([3]; aqueous with cosolvent or surfactant or cyclodextrin, Ethanol-water (3:1)): ~24.5 mg/mL (≈ 70.7 mM)
solubility ([3]; aqueous with cosolvent or surfactant or cyclodextrin, Isopropanol-water (1:1)): ~17.3 mg/mL (≈ 49.9 mM)
solubility ([3]; aqueous with cosolvent or surfactant or cyclodextrin, Methanol-water (1:1)): ~7.8 mg/mL (≈ 22.5 mM)
solubility ([3]; aqueous with cosolvent or surfactant or cyclodextrin, Methanol-water (3:1)): ~19 mg/mL (≈ 54.8 mM)
solubility ([3]; organic solvent or mixture, 2-methyltetrahydrofuran): ~24.2 mg/mL (≈ 69.9 mM)
solubility ([3]; organic solvent or mixture, Acetone): ~17.2 mg/mL (≈ 49.6 mM)
solubility ([3]; organic solvent or mixture, Acetonitrile): ~13 mg/mL (≈ 37.5 mM)
solubility ([3]; organic solvent or mixture, Butanone): ~37.2 mg/mL (≈ 107 mM)
solubility ([3]; organic solvent or mixture, Cyclohexane): < 1 mg/mL
solubility ([3]; organic solvent or mixture, Dioxane): > 57 mg/mL
solubility ([3]; organic solvent or mixture, Ethanol): ~11.2 mg/mL (≈ 32.3 mM)
solubility ([3]; organic solvent or mixture, Ethyl acetate): ~15.2 mg/mL (≈ 43.9 mM)
solubility ([3]; organic solvent or mixture, Isopropanol): ~10.1 mg/mL (≈ 29.2 mM)
solubility ([3]; organic solvent or mixture, Isopropyl acetate): ~12 mg/mL (≈ 34.6 mM)
solubility ([3]; organic solvent or mixture, Methanol): ~28.7 mg/mL (≈ 82.8 mM)
solubility ([3]; organic solvent or mixture, Methyl isobutyl ketone): ~10.9 mg/mL (≈ 31.5 mM)
solubility ([3]; organic solvent or mixture, Methyl tertiary butyl ether): ~2.6 mg/mL (≈ 7.51 mM)
solubility ([3]; organic solvent or mixture, Methylbenzene): < 1 mg/mL
solubility ([3]; organic solvent or mixture, Tetrahydrofuran): > 67 mg/mL
solubility ([3]; organic solvent or mixture, n-butanol): ~20.5 mg/mL (≈ 59.2 mM)
solubility ([3]; organic solvent or mixture, n-heptane): < 1 mg/mL
solubility ([3]; Water): < 1 mg/mL
Appearance [4, 5]: White powder
Content [4, 5]: 101.4%
Total Impurities [4, 5]: 0.31%
Appearance [4, 6]: White powder
Content [4, 6]: 98.8%
Total Impurities [4, 6]: 0.34%
Appearance [4, 7]: White powder
Content [4, 7]: 101.8%
Total Impurities [4, 7]: 0.32%
Appearance ([4]; Initial, 0 month): White powder
Content ([4]; Initial, 0 month): 101.6%
Total Impurities ([4]; Initial, 0 month): 0.33%
Compound: Cn1c(=O)n(C[C@H]2CC[C@@](C)(O)CC2)c(=O)c2c1ncn2CC1CC1 [Crystal Form A, 7-(cyclopropylmethyl)-1-(((cis)-4-hydroxy-4-methylcyclohexyl)methyl)-3-methyl-1H-purine-2,6-(3H, 7H)-dione]

Compound: CC(=O)CCCCn1c(=O)c2c(ncn2C)n(C)c1=O [Pentoxifylline, reference compound]
clearance [1]: 74.1 mL/min/kg
AUC [1]: 6.62 µM·h
half-life [1]: 11.5 min

From patent US10399981B2, “Crystal form A of 7-(cyclopropylmethyl)-1-(((cis )-4-hydroxy-4-methylcyclohexyl)methyl)-3-methyl-1H-purine-2,6-(3H,7H)-dione for treating liver diseases” (GUANGDONG RAYNOVENT BIOTECH CO., LTD., priority 2015, dated 2019)
